Test results taken from ChEMBL document CHEMBL1144118, “New antimycobacterial saponin from Colubrina retusa” (1999).
≈ marks a conversion by molar mass, not a printed value. Calls of active or inactive are those of the source. The calls are words filed in the database; no cut-off is given here.

Tested on: Mycobacterium intracellulare
Assay: Antimycobacterial activity against Mycobacterium intracellular ATCC 23068 after 48 hrs
Assay type: functional
Conditions: for MIC: ATCC 23068, 48 h

Row | MIC | SMILES | Activity
1 | 50 µg/mL (≈ 47.8 µM) | CC(C)=C[C@H]1C[C@](C)(O)[C@@H]2[C@H]3CC[C@@H]4[C@@]5(C)CC[C@H](O[C@@H]6OC[C@H](O)[C@H](O[C@@H]7O[C@H](CO)[C@@H](O)[C@H](O)[C@H]7OC(=O)/C=C/c7ccc(O)cc7)[C@H]6O[C@@H]6O[C@@H](CO)[C@H](O)[C@H]6O)C(C)(C)[C@@H]5CC[C@@]4(C)[C@@]34CO[C@@]2(C4)O1 | –
2 | 10 µg/mL (≈ 9.57 µM) | CC(C)=C[C@H]1C[C@](C)(O)[C@@H]2[C@H]3CC[C@@H]4[C@@]5(C)CC[C@H](O[C@@H]6OC[C@H](O)[C@H](O[C@@H]7O[C@H](CO)[C@@H](O)[C@H](OC(=O)/C=C/c8ccc(O)cc8)[C@H]7O)[C@H]6O[C@@H]6O[C@@H](CO)[C@H](O)[C@H]6O)C(C)(C)[C@@H]5CC[C@@]4(C)[C@@]34CO[C@@]2(C4)O1 | –
3 | – | CC(C)=C[C@H]1C[C@](C)(O)[C@@H]2[C@H]3CC[C@@H]4[C@@]5(C)CC[C@H](O[C@@H]6OC[C@H](O)[C@H](O[C@@H]7O[C@H](CO)[C@@H](O)[C@H](O)[C@H]7O)[C@H]6O[C@@H]6O[C@@H](CO)[C@H](O)[C@H]6O)C(C)(C)[C@@H]5CC[C@@]4(C)[C@@]34CO[C@@]2(C4)O1 | inactive
4 | 0.3 µg/mL (≈ 0.365 µM) | CO[C@H]1/C=C/O[C@@]2(C)Oc3c(C)c(O)c4c(O)c(c(/C=N/N5CCN(C)CC5)c(O)c4c3C2=O)NC(=O)/C(C)=C\C=C\[C@H](C)[C@H](O)[C@@H](C)[C@@H](O)[C@@H](C)[C@H](OC(C)=O)[C@@H]1C [RIFAMPIN] | –
